For 15 molecules, Ki results are on record in patent US9029370B2, “Substituted benzamide derivatives” (Hoffmann-La Roche Inc., priority 2011, dated 2015).

Assay [1] has as its target mouse TAAR1 (Mus musculus (Mouse), UniProt Q923Y8). The assay can be described thus: Radioligand binding assay on mouse TAAR1. The following applies: mouse TAAR1, HEK-293 membranes; first value of the pair (before the slash); read-out: Ki (μM) mouse/rat. A digest of the protocol:
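Membranes from HEK293 cells stably expressing mouse TAAR1, in HEPES-NaOH pH 7.4 with 0.1 mM EDTA, were incubated 1 h at 4°C with tritiated (S)-4-[(ethyl-phenyl-amino)-methyl]-4,5-dihydro-oxazol-2-ylamine and compound (10 pM–10 μM, duplicates). Nonspecific binding defined with 10 μM unlabeled ligand; bound radioactivity by filtration and scintillation counting.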

Assay [2] addresses rat TAAR1 (Rattus norvegicus (Rat), UniProt Q923Y9). The assay can be described thus: Radioligand binding assay on rat TAAR1. The following applies: rat TAAR1, HEK-293 membranes; second value of the pair (line below); read-out: Ki (μM) mouse/rat. The method, boiled down:
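Membranes from HEK293 cells stably expressing rat TAAR1 were incubated 1 hr at 4 °C with ^3[H]-(S)-4-[(ethyl-phenyl-amino)-methyl]-4,5-dihydro-oxazol-2-ylamine; nonspecific binding was defined with 10 μM unlabeled ligand. Compounds were tested at 10 pM to 10 μM in duplicate. Bound radioactivity was read by filtration and scintillation counting.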

Structures can show the parent of a compound that is named as a salt.

Sequence of mouse TAAR1 (Q923Y8 whole entry): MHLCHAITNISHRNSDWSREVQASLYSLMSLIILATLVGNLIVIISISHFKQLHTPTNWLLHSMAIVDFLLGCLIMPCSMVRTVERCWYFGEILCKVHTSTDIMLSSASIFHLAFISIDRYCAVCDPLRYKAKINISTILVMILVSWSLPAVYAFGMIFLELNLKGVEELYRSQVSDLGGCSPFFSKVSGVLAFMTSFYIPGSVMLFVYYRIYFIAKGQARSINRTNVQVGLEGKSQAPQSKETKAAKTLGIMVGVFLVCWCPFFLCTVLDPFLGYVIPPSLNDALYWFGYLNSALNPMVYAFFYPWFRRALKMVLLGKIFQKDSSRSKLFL
Sequence of rat TAAR1 (Q923Y9 whole entry): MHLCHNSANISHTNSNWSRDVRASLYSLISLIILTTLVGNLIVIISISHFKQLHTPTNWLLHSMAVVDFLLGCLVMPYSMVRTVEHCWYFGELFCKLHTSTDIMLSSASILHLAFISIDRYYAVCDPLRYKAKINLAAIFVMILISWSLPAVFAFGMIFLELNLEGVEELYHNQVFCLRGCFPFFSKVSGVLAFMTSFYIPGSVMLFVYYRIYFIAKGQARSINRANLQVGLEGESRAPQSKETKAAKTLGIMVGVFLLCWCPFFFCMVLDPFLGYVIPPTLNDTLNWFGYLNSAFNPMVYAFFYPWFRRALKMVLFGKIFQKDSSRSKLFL

For the molecule `O=C(Nc1ccc([C@H]2CNCCO2)c(F)c1)c1cnc(C(F)(F)F)cn1` [Example 137, (S)—N-(3-Fluoro-4-(morpholin-2-yl)phenyl)-5-(trifluoromethyl)pyrazine-2-carboxamide hydrochloride], the Ki stood at 0.0067 µM in assay [1] and 0.0301 µM in assay [2].
On to `N#Cc1cc(F)cc(NC(=O)Nc2ccc([C@@H]3CNCCO3)cc2F)c1` [Example 59, 1-(3-Cyano-5-fluoro-phenyl)-3-((R)-2-fluoro-4-morpholin-2-yl-phenyl)-urea], for which the Ki came out at 0.0018 µM in assay [1] and 0.001 µM in assay [2].
Take `CCOc1ccc(C(=O)Nc2ccc([C@H]3CNCCO3)c(Cl)c2)cn1` [Example 95, (S)—N-(3-Chloro-4-(morpholin-2-yl)phenyl)-6-ethoxynicotinamide hydrochloride]: the Ki in assay [1] came to 0.0033 µM; in assay [2] it was 0.035 µM.
In the same order, the values of `Cc1cc(C(=O)Nc2ccc([C@H]3CNCCO3)cc2Cl)cc(C#N)n1` [Example 123, (S)—N-(2-Chloro-4-(morpholin-2-yl)phenyl)-2-cyano-6-methylisonicotinamide hydrochloride] are 0.0413 µM and 0.0474 µM.
`O=C(Nc1ccc([C@@H]2CNCCO2)cc1Cl)c1ccn(-c2ccc(F)cc2)n1` [Example 30, (R)—N-(2-Chloro-4-(morpholin-2-yl)phenyl)-1-(4-fluorophenyl)-1H-pyrazole-3-carboxamide]: the Ki in assay [1] came to 0.032 µM; in assay [2], 0.0012 µM.
Take `O=C(Nc1ccc([C@H]2CNCCO2)c(Cl)c1)c1cnn(-c2ccc(OC(F)F)cc2)c1` [Example 96, (S)—N-(3-Chloro-4-(morpholin-2-yl)phenyl)-1-(4-(difluoromethoxy)phenyl)-1H-pyrazole-4-carboxamide hydrochloride]: the Ki in assay [1] is 0.0013 µM; in assay [2] it was 0.0006 µM.
With `O=C(Nc1ccc(C2CCCNC2)cc1Cl)c1ccc(Cl)nc1` (racemic) [Example 43, (RS)-6-Chloro-N-(2-chloro-4-piperidin-3-yl-phenyl)-nicotinamide], the figures for the Ki in assay [1] and in assay [2] were 0.0164 µM and 0.367 µM, respectively.
As for `COc1ccc(C#N)cc1NC(=O)Nc1ccc([C@@H]2CNCCO2)cc1Cl` [Example 45, (R)-1-(2-Chloro-4-(morpholin-2-yl)phenyl)-3-(5-cyano-2-methoxyphenyl)urea], the Ki in assay [1] turned out to be 0.0023 µM; in assay [2], 0.0044 µM.
In the same order, the values of `O=C(Nc1ccc(Cl)nc1)Nc1ccc([C@H]2CNCCO2)cc1F` [Example 9, 1-(6-Chloro-pyridin-3-yl)-3-((S)-2-fluoro-4-morpholin-2-yl-phenyl)-urea] are 0.0017 µM and 0.0105 µM.
In the same order, the values of `N#Cc1ccc(OC(F)F)c(NC(=O)Nc2ccc([C@@H]3CNCCO3)cc2Br)c1` [Example 60, 1-((R)-2-Bromo-4-morpholin-2-yl-phenyl)-3-(5-cyano-2-difluoromethoxy-phenyl)-urea] are 0.0008 µM and 0.001 µM.
In the same order, the values of `O=C(Nc1ccc([C@H]2CNCCO2)cc1F)c1cnn(-c2ccc(OC(F)F)cc2)c1` [Example 76, (S)-1-(4-(Difluoromethoxy)phenyl)-N-(2-fluoro-4-(morpholin-2-yl)phenyl)-1H-pyrazole-4-carboxamide] are 0.0016 µM and 0.0018 µM.
In the case of `O=C(Nc1ccc([C@H]2CNCCO2)c(F)c1)c1cnn(-c2cc(C(F)(F)F)ncn2)c1` [Example 129, (S)—N-(3-Fluoro-4-(morpholin-2-yl)phenyl)-1-(6-(trifluoromethyl)pyrimidin-4-yl)-1H-pyrazole-4-carboxamide hydrochloride], the values for the Ki in assay [1] and in assay [2] were 0.0073 µM and 0.0025 µM, respectively.
On the same counts, the results for `COc1ccc(C#N)cc1NC(=O)Nc1ccc([C@@H]2CNCCO2)cc1Br` [Example 57, 1-((R)-2-Bromo-4-morpholin-2-yl-phenyl)-3-(5-cyano-2-methoxy-phenyl)-urea] are 0.0039 µM and 0.0127 µM.
On the same counts, the results for `N#Cc1cnc(-n2cc(C(=O)Nc3ccc([C@H]4CNCCO4)c(F)c3)cn2)cn1` [Example 131, (S)-1-(5-Cyanopyrazin-2-yl)-N-(3-fluoro-4-(morpholin-2-yl)phenyl)-1H-pyrazole-4-carboxamide hydrochloride] are 0.0254 µM and 0.0144 µM.
On the same counts, the results for `O=C(Nc1cnc(C(F)(F)F)nc1)Nc1ccc([C@H]2CNCCO2)cc1Br` [Example 69, 1-((S)-2-Bromo-4-morpholin-2-yl-phenyl)-3-(2-trifluoromethyl-pyrimidin-5-yl)-urea] are 0.0086 µM and 0.018 µM.
